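Protocol summary: plate cells (96-well), add compound at 5 concentrations, incubate 48 h, interpolate endpoints linearly. GI50 marks 50% less growth. TGI denotes the concentration required for complete inhibition of growth.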
What was measured:
Test in all cases: DTP human tumour cell line panel, 48 h
DU-145 prostate = tested on: DU-145 prostate
HOP-92 NSCLC = tested on: HOP-92 NSCLC
IGROV1 ovarian = tested on: IGROV1 ovarian
NCI-H460 lung = tested on: NCI-H460 lung
NCI-H522 lung = tested on: NCI-H522 lung
OVCAR-3 ovarian = tested on: OVCAR-3 ovarian
OVCAR-5 ovarian = tested on: OVCAR-5 ovarian
PC-3 prostate = tested on: PC-3 prostate
SNB-75 CNS = tested on: SNB-75 CNS
UO-31 renal = tested on: UO-31 renal

Row | Structure (SMILES) | GI50 (DU-145 prostate) | TGI (DU-145 prostate) | GI50 (HOP-92 NSCLC) | TGI (HOP-92 NSCLC) | GI50 (IGROV1 ovarian) | TGI (IGROV1 ovarian) | GI50 (NCI-H460 lung) | TGI (NCI-H460 lung) | GI50 (NCI-H522 lung) | TGI (NCI-H522 lung) | GI50 (OVCAR-3 ovarian) | TGI (OVCAR-3 ovarian) | GI50 (OVCAR-5 ovarian) | TGI (OVCAR-5 ovarian) | GI50 (PC-3 prostate) | TGI (PC-3 prostate) | GI50 (SNB-75 CNS) | TGI (SNB-75 CNS) | GI50 (UO-31 renal) | TGI (UO-31 renal)
1 | Cc1nn(-c2ccc(F)cc2)c2ncnc(Nc3ccc(NC(=O)Nc4ccc(Cl)c(C(F)(F)F)c4)cc3)c12 | 3.17 µM | 11.7 µM | 1.73 µM | 4.59 µM | 2.66 µM | 11.2 µM | 2.35 µM | 6.01 µM | 1.74 µM | 4.42 µM | 2.06 µM | 5.79 µM | 2.81 µM | 11.9 µM | 1.03 µM | 3.98 µM | 1.32 µM | 5.41 µM | 1.65 µM | 4.17 µM
2 | CC(=O)OCC1OC(O[C@@H]2C[C@H]3C(C)(C)[C@H](OC(C)=O)CC[C@]3(C)[C@H]3CCC4=C([C@@H](C)C[C@@H](O)[C@H](O)C(C)(C)O)CC[C@@]4(C)[C@@]32C)C(O)C(O)C1O (stereo not given in full) | 17.8 µM | 31.8 µM | 14.6 µM | 27.9 µM | 16.3 µM | 30.1 µM | 16 µM | 29.8 µM | 13.2 µM | 27.2 µM | 14.4 µM | 27.8 µM | 17.7 µM | 31.6 µM | 14.5 µM | 27.9 µM | 13.2 µM | 26 µM | 18.4 µM | 32.7 µM
3 | C#Cc1cnc(=O)n(C2CC(O)C(CO)O2)c1 (stereo not given) | > 100 µM | > 100 µM | – | > 43.2 µM | > 100 µM | > 100 µM | > 78.5 µM | > 100 µM | > 100 µM | > 100 µM | 97 µM | > 100 µM | > 100 µM | > 100 µM | 3.36 µM | 11.3 µM | > 100 µM | > 100 µM | > 100 µM | > 100 µM
4 | COc1cc2ncn(-c3cc(OCc4ccccc4Cl)c(C(N)=O)s3)c2cc1OC | 0.105 µM | 0.511 µM | 3.8 µM | > 25 µM | 0.552 µM | > 25 µM | 0.146 µM | > 8.64 µM | 0.13 µM | 1.13 µM | 0.0867 µM | 1.99 µM | 0.492 µM | > 25 µM | 1 µM | > 25 µM | 0.707 µM | 6.47 µM | 1.14 µM | > 25 µM
5 | COc1cc(C(=O)NC2c3ccccc3-c3ccccc32)c(N)cc1OCc1ccccc1 | 2.87 µM | > 100 µM | 14.2 µM | 33.6 µM | 34.3 µM | > 100 µM | 35.1 µM | > 100 µM | 34.7 µM | > 100 µM | 24.2 µM | > 87.3 µM | 52.5 µM | > 100 µM | 27.5 µM | > 66.1 µM | 7.84 µM | 30.7 µM | 30.2 µM | > 100 µM
6 | CC(CO)(CO)N=Cc1cc(I)cc(I)c1O | – | 29.8 µM | – | 32.9 µM | – | 33.3 µM | – | 55 µM | – | 49.4 µM | – | 29.2 µM | – | 53.7 µM | – | 32.1 µM | – | 34.8 µM | – | 34.6 µM
7 | COc1ccc(-c2cc(-c3cc(Cl)ccc3Cl)nc3[nH]c(-c4cc(F)c(Cl)cc4Cl)cc(=O)c23)cc1 | 31.3 µM | > 100 µM | 35.3 µM | > 100 µM | 16.5 µM | > 100 µM | 87.3 µM | > 100 µM | 20.4 µM | > 100 µM | > 100 µM | > 100 µM | 22.2 µM | 89.2 µM | 39.3 µM | > 100 µM | > 100 µM | > 100 µM | 59.5 µM | > 100 µM
8 | O=C(NNc1nc2c(F)cccc2n2cccc12)c1cnccn1 | 0.657 µM | 24.9 µM | 0.556 µM | 45.1 µM | 0.328 µM | 29.1 µM | 0.331 µM | 11 µM | 0.817 µM | 16.8 µM | 0.454 µM | 13.6 µM | 1.51 µM | > 61.1 µM | 0.393 µM | 39.5 µM | 1.98 µM | 41.6 µM | 0.216 µM | 13.6 µM
9 | NC(CO)Cc1cnc[nH]1 (stereo not given) | – | > 100 µM | – | > 10 µM | > 100 µM | > 100 µM | > 100 µM | > 100 µM | – | > 100 µM | > 100 µM | > 100 µM | – | > 100 µM | > 100 µM | > 100 µM | > 100 µM | > 100 µM | > 100 µM | > 100 µM
10 | CC1(C)N=C(N)N=C(N)N1c1ccc(CCCCc2ccc(S(=O)(=O)F)cc2)cc1 | 0.833 µM | 28.2 µM | 4.48 µM | 27.8 µM | 0.445 µM | 23.5 µM | 0.153 µM | 13.3 µM | 2.43 µM | 16.2 µM | 3.88 µM | 16.4 µM | 2.62 µM | > 100 µM | 0.094 µM | 23.5 µM | 2.16 µM | 20.2 µM | 35.1 µM | > 100 µM
11 | NC(N)=N/N=C(/c1ccccc1)c1ccc(F)cc1 | 0.33 µM | 4.15 µM | 0.984 µM | 31.4 µM | 0.528 µM | 13.5 µM | 0.342 µM | 10.8 µM | 0.267 µM | 1.45 µM | 0.227 µM | 0.621 µM | 1.03 µM | 18.7 µM | 0.382 µM | 18.8 µM | 0.183 µM | 3.09 µM | 0.991 µM | 14.6 µM
12 | CN(C)CC(=O)N1CCC(c2ccc(NC(=O)c3ncc(C#N)[nH]3)c(C3=CCCCC3)c2)CC1 | 12 µM | 24.6 µM | 0.21 µM | 2.74 µM | 7.48 µM | 25.7 µM | 7.83 µM | 23.4 µM | 7.88 µM | 23.1 µM | 15.7 µM | 29.6 µM | 10.8 µM | 25.2 µM | 8.38 µM | 25.5 µM | 1.25 µM | 9.12 µM | 3.61 µM | 15 µM
13 | N#Cc1c(-c2cccs2)c2c(=S)[nH]c(=S)[nH]c2[nH]c1=S | 24 µM | 78.7 µM | 89.4 µM | > 100 µM | 71.3 µM | > 100 µM | 39.1 µM | 72.9 µM | 29.1 µM | 79 µM | 34.5 µM | 98.8 µM | > 100 µM | > 100 µM | 30.8 µM | > 100 µM | > 100 µM | > 100 µM | 40.6 µM | 92.6 µM

From PubChem BioAssay (NCI)
